Patent US10570152B2, “Antibacterial therapeutics and prophylactics” (VYOME BIOSCIENCES PVT. LTD., priority 2015, dated 2020)
In brackets after ≈: the same amount, converted by molar mass.

Tests used:
S. epidermidis S5-2 = assay: Sequential ZIB (zone of inhibition) assay for PMMA beads; format: cell-based, Staphylococcus epidermidis; conditions: SmartSet HV impregnated beads
Protocol: S. epidermidis S5-2 cells were grown in Brain Heart Infusion Agar (BHIA) at 37° C. for 24 h. 100 μl of 0.5 McFarland equal bacterial suspension was spread on BHA plates. Drug loaded beads were placed above these plates. Plates were incubated at 37° C. for 24 h. Next day, zone of inhibition (ZOI) the beads were measured following which the beads were placed on fresh BHA plates with bacterial suspension spread and this experiment was continued up to seven days. The drug release pattern was determined by compiling and analyzing the ZOI data of beads on each ZOI cycle up to seven days.

[1] = system: S. epidermidis ATCC 35984 biofilm; assay: Biofilm disruption assay (MTT) with compounds and compound loaded beads; format: cell-based; conditions: Staphylococcus epidermidis, ATCC35984, read-out: Concentration of compounds (mg/ml) for 50% biofilm disruption
Protocol: S. epidermidis ATCC 35984 was grown in Brain Heart Infusion Agar (BHIA) at 37° C. for 24 h. The loop full of bacterial culture was suspended in sterile water and matched the turbidity against 0.5 McFarland Standard (approximately 1.5×10^8), 100 μl of culture suspension was added into each well of the 96 well plate and plates were incubated at 37° C. for 48 h for biofilm formation. The biofilm formed in each well was washed twice with sterile water to remove the planktonic cells. Then biofilm was treated with 100 yl of BHI broth suspended with various concentrations of DART molecules, followed by incubation of the plates at 37° C. for 24 h. Subsequently the biofilm in the wells were stained with MTT reagent and the plates were incubated at 37° C. for 2 h. The precipitate formed in the wells was dissolved in 100 μl of dimethyl sulfoxide (DMSO) and the absorbance was measured at 600 nm in multi well plate reader to determine the minimum biofilm inhibitory concentration (MBIC). The MBIC was calculated by subtracting the absorbance value of each drug treated sample from that of 48 h growth control.

Cc1ncc([N+](=O)[O-])n1CCN1CCN(c2cc3c(cc2F)c(=O)c(C(=O)O)c2n3C(C)S2)CC1 (centres unmarked) [Compound 2, 6-Fluoro-1-methyl-7-(4-(2-(2-methyl-5-nitro-1H-imidazol-1-yl)ethyl)piperazin-1-yl)-4-oxo-1H,4H-[1,3]thiazeto[3,2-a]quinoline-3-carboxylic acid]
Sequential ZOI (S. epidermidis S5-2; Day-1): 2.2 cm | Sequential ZOI (S. epidermidis S5-2; Day-2): 2.1 cm | Sequential ZOI (S. epidermidis S5-2; Day-3): 1.6 cm | Sequential ZOI (S. epidermidis S5-2; Day-4): 0.8 cm | Sequential ZOI (S. epidermidis S5-2; Day-5): 1.6 cm | Sequential ZOI (S. epidermidis S5-2; Day-6): 1.8 cm | Sequential ZOI (S. epidermidis S5-2; Day-7): 1.4 cm | EC50 [1]: 0.5 to 1 mg/mL (≈ 995 to 1990 µM)
